Assay [1] relates to Streptococcus pneumoniae ATCC49619. In words: Antimicrobial activity assay (MIC, broth microdilution, CAMHB with 5% horse serum). Type of assay: cell-based. As to the method:
(§1) Antimicrobial Activity Assay
(§2) The antibacterial activity of compounds is determined by the minimal inhibitory concentration (MIC) method. MICs for all bacteria except pneumococci and Haemophilus influenzae are obtained by broth microdilution with cation-adjusted Mueller-Hinton broth (CAMHB; BBL), according to CLSI guidelines (National Committee for Clinical Laboratory Standards. 2003. Methods for dilution antimicrobial susceptibility tests for bacteria that grow aerobically, 5th ed.; a approved standard M7-A6. National Committee for Clinical Laboratory Standards, Wayne, Pa.), with the following modifications: (i) for pneumococci CAMHB is supplemented with 5% (^v/v) horse serum; (ii) for Haemophilus influenzae CAMHB is supplemented with 5% (^v/v) Fildes enrichment (BBL) (Pankuch, G. A., Hoellman, D. B., Lin, G., Bajaksouzian, S., Jacobs, M. R., and Appelbaum, P. C. 1998. Activity of HMR 3647 compared to those of five agents against Haemophilus influenzae and Moraxella catarrhalis by MIC determination and time-kill assay. Antimicrob. Agents Chemother. 42:3032-3034). Microtiter plates are incubated at 35° C. in ambient air for 20 to 24 h, then inspected using an illuminated microtiter plate reader fitted with a magnifying mirror (MIC 2000; Cooke Laboratory Products, Alexandria, Va.). Compounds of the present invention are tested against several bacteria strains comprising some Acinetobacter baumannii, Enterococcus faecalis, Enterococcus faecium, Escherichia coli, Haemophilus influenzae, Klebsiella pneumoniae, Pseudomonas aeruginosa, Staphylococcus aureus, Staphylococcus epidermidis, Streptococcus pyogenes; Enterobacter cloacae and Streptococcus pneumoniae.

Assay [2] relates to Escherichia coli ATCC25922. Description: Antimicrobial activity assay (MIC, broth microdilution). The class given is cell-based. As for the experimental part: as §1
as §2, with “Compounds of the present invention are tested against several bacteria strains comprising some Acinetobacter baumannii, Enterococcus faecalis, Enterococcus faecium, Escherichia coli, Haemophilus influenzae, Klebsiella pneumoniae, Pseudomonas aeruginosa, Staphylococcus aureus, Staphylococcus epidermidis, Streptococcus pyogenes; Enterobacter cloacae and Streptococcus pneumoniae.” left out

In assay [1], `COc1ccc2ncc3c(c2c1)CC(C[C@H]1CC[C@H](NC(=O)c2ccc4c(c2)NC(=O)CO4)CC1)CO3` (relative stereo) [Example 36, 3-oxo-3,4-dihydro-2H-benzo[1,4]oxazine-6-carboxylic acid [trans-4-(6-methoxy-3,4-dihydro-2H-1-oxa-9-aza-phenanthren-3-ylmethyl)-cyclohexyl]-amide] yielded a minimum inhibitory concentration (MIC) of at most 8 µg/mL.
Consider `COc1ccc2ncc3c(c2c1)CC(C(O)[C@H]1CC[C@H](NC(=O)c2ccc4c(c2)NC(=O)CS4)CC1)O3` (relative stereo) [Example 59, 3-oxo-3,4-dihydro-2H-benzo[1,4]thiazine-6-carboxylic acid {trans-4-[hydroxy-(8-methoxy-1,2-dihydro-furo[2,3-c]quinolin-2-yl)-methyl]-cyclohexyl}-amide], for which the minimal inhibitory concentration (MIC) in assay [1] was at most 8 µg/mL.
Consider `COc1ccc2ncc3c(c2n1)CC(CN1CCC(NC(=O)c2ccc4c(c2)NC(=O)CS4)CC1)CO3` (stereo not drawn) [Example 1, 3-oxo-3,4-dihydro-2H-benzo[1,4]thiazine-6-carboxylic acid [1-(6-methoxy-3,4-dihydro-2H-1-oxa-5,9-diaza-phenanthren-3-ylmethyl)-piperidin-4-yl]-amide], for which the MIC in assay [1] and in assay [2] was at most 8 µg/mL in each case.
In turn, `COc1ccc2ncc3c(c2c1)CC(Cn1cc(NC(=O)c2ccc4c(c2)NC(=O)CS4)cn1)CO3` (stereo not drawn) [Example 31, 3-oxo-3,4-dihydro-2H-benzo[1,4]thiazine-6-carboxylic acid [1-(6-methoxy-3,4-dihydro-2H-1-oxa-9-aza-phenanthren-3-ylmethyl)-1H-pyrazol-4-yl]-amide] showed an MIC in assay [1] of at most 8 µg/mL.
Consider `COc1ccc2ncc3c(c2c1)CC(CN1CCC(NCc2ccc4c(c2)NC(=O)CS4)CC1)CO3` (stereo not drawn) [Example 34, 6-{[1-(6-methoxy-3,4-dihydro-2H-1-oxa-9-aza-phenanthren-3-ylmethyl)-piperidin-4-ylamino]-methyl}-4H-benzo[1,4]thiazin-3-one], for which, in assay [1], the minimum inhibitory concentration (MIC) is at most 8 µg/mL.
Compound `COc1ccc2ncc3c(c2c1)OC(CN1CC(NC(=O)c2ccc4c(c2)NC(=O)CS4)C1)C3` (stereo not drawn) [Example 39, 3-oxo-3,4-dihydro-2H-benzo[1,4]thiazine-6-carboxylic acid [1-(8-methoxy-2,3-dihydro-furo[3,2-c]quinolin-2-ylmethyl)-azetidin-3-yl]-amide] gave an MIC in assay [1] of at most 8 µg/mL.
In assay [1], `COc1ccc2ncc3c(c2c1F)CC(CN1CCC(NC(=O)c2ccc4c(c2)NC(=O)CS4)CC1)CO3` (stereo not drawn) [Example 45, 3-oxo-3,4-dihydro-2H-benzo[1,4]thiazine-6-carboxylic acid [1-(5-fluoro-6-methoxy-3,4-dihydro-2H-1-oxa-9-aza-phenanthren-3-ylmethyl)-piperidin-4-yl]-amide] displayed an MIC of at most 8 µg/mL.
For `COc1ccc2ncc3c(c2c1)CC(CN1CC(NC(=O)c2ccc4c(c2)NC(=O)CS4)C1)CS3` (stereo not drawn) [Example 49, 3-oxo-3,4-dihydro-2H-benzo[1,4]thiazine-6-carboxylic acid [1-(6-methoxy-3,4-dihydro-2H-1-thia-9-aza-phenanthren-3-ylmethyl)-azetidin-3-yl]-amide], the MIC in assay [1] is at most 8 µg/mL.
`COc1ccc2ncc3c(c2c1)CC(CN1CC(NC(=O)c2ccc4c(c2)NC(=O)CS4)CC1CO)CS3` (stereo not drawn) [Example 51, 3-oxo-3,4-dihydro-2H-benzo[1,4]thiazine-6-carboxylic acid [5-hydroxymethyl-1-(6-methoxy-3,4-dihydro-2H-1-thia-9-aza-phenanthren-3-ylmethyl)-pyrrolidin-3-yl]-amide] came in with an MIC in assay [1] of at most 8 µg/mL.
Regarding `COc1ccc2ncc3c(c2n1)CC(CN1CCC(NC(=O)c2ccc4c(c2)NC(=O)CS4)CC1)O3` (stereo not drawn) [Example 54, 3-oxo-3,4-dihydro-2H-benzo[1,4]thiazine-6-carboxylic acid [1-(8-methoxy-1,2-dihydro-3-oxa-5,9-diaza-cyclopenta[a]naphthalen-2-ylmethyl)-piperidin-4-yl]-amide], the minimum inhibitory concentration (MIC) in assay [1] is at most 8 µg/mL.
Still for that read-out and setting: with `COc1ccc2ncc3c(c2c1)CC(CN1CCC(NC(=O)c2ccc4c(c2)NC(=O)CS4)CC1)O3` (stereo not drawn) [Example 55, 3-oxo-3,4-dihydro-2H-benzo[1,4]thiazine-6-carboxylic acid [1-(8-methoxy-1,2-dihydro-furo[2,3-c]quinolin-2-ylmethyl)-piperidin-4-yl]-amide] the figure was at most 8 µg/mL.

For the origin of these results see US9321788B2, “Tricyclic antibiotics” (BASILEA PHARMACEUTICA AG, priority 2011, dated 2016).
